Like-named read-outs stand apart in the source and are kept apart here.
Columns and labels:
[1] = Water solubility of ACAs (Table 1); assay type: physicochemical; details: in water
[2] = Stabilization of polymer on heating; details: IRS-129 heated at 100° C. for 4 days
[3] = Accelerated release study: coalescing agent blended with latex IRS-129, film heated at 110° C., 1H NMR; details: 2 wt % in IRS-129 latex, dried 2 days at room temperature, powder heated at 110° C. in convection oven
Procedure: At first, ACA4 (2 wt % with respect to latex) was first blended with IRS-129 latex (containing —COOH groups) using dispermat (LC75-E) and the mixture was allowed to dry at room temperature for 2 days. Then, the polymer film was grounded to make powder and then heated at 110° C. in a convection oven, i.e. accelerated evaporation (as illustrated in FIG. 6). Accelerated evaporation was used in this study instead as natural release is time consuming and gas analysis is difficult.
Samples were collected time to time, dissolved in NMR solvent and analyzed by ^1H NMR spectroscopy (with 25 mg of sample, 0.8 mL of CDCl3, and 25 μL of DMF/CDCl3 as internal standard). High boiling commercial coalescing agent, 1-Phenoxy-2-propanol (PPH) (b.p. 243° C.) was used as control.

[4] = Boiling point determination of ACAs; assay type: physicochemical
Procedure: Amine based reactive coalescing agents were synthesized via an atom efficient aza-Michael addition reaction of secondary amine to different acrylate/acrylamide monomers such as 2-hydroxyethyl acrylate, 2-hydroxypropyl acrylate, 2-ethylhexyl acrylate, ^nbutyl acrylate, and N-hydroxyethyl acrylamide etc (Table 1 and Scheme 2). The reactions were carried out neat or in water (in some cases, in the presence of 10% ceric ammonium nitrate (CAN) catalyst) at room temperature (RT)-80° C. to yield 80% to 95% conversion. Finally, the ACAs were purified by column chromatography and characterized by ^1H-NMR and ^13C-NMR spectroscopy, and elemental microanalysis (as will be shown in Examples 3.1 to 3.5). Other characterizations include determination of boiling point, volatility (% wt loss when heated at 110±5° C. for 1 hour as per USA EPA 24 method), and plasticizing effect, i.e. reduction of minimum film formation temperature (MFFT) of commercial latices.
Characterization studies were performed on the ACA examples to determine their boiling points and volatility (% wt loss when heated at 110±5° C. for 1 hour as per USA EPA 24 method).

[5] = commercial coalescing agent used as control; cited from earlier work

Water Solubility [1] [%] | b.p. [4] | Structure (SMILES) | Stabilisation of latex polymer against oxidation/coloration [2] | Presence of coalescing agent in polymer film after heating (1H NMR) [3] | b.p. [5] [°C]
<0.06 | 292-297 °C | O=C(CCN(Cc1ccccc1)Cc1ccccc1)OCCO [ACA4] | helps to stabilise or reduce oxidation/coloration of the polymer | remain present even after 4 days of heating | 
 | 251-254 °C | C=C(C)C(=O)OCCOC(=O)CCN(Cc1ccccc1)Cc1ccccc1 [ACA15] |  |  | 
 | 348-355 °C | CCOCCOCCOC(=O)CCN(Cc1ccccc1)Cc1ccccc1 [ACA16] |  |  | 
 |  | CC(O)COc1ccccc1 (centres unmarked) [PPH, 1-Phenoxy-2-propanol, reference compound] |  | completely evaporated out from the polymer after 2 days of heating | 243
